Paper PMC7607171, “Optimized low‐dose combinatorial drug treatment boosts selectivity and efficacy of colorectal carcinoma treatment” (Molecular Oncology, 2020)
“And” between values parts separate entries of the source, which are not always exact repeats. Identical values can stand only once. Like-named read-outs stand apart in the source and are kept apart here.

Experiments:
[1] = Pharmacokinetics, dried blood spot LC-MS/MS, mice with DLD1 tumors; assay type: in vivo; conditions: for Tmax / AUC(0-t) / Cmax: Swiss Nu/nu, mouse, whole blood (dried blood spot), po, regorafenib 15, erlotinib 12.5, selumetinib 5, vemurafenib 75 mg/kg; for AUC(0-t) / Cmax: whole blood, mean ± SD; for AUC(0-t): oral, read-out: AUC0-24h
Procedure: The pharmacokinetic (PK) study was performed using the dried blood spot method. Mice were treated with CTRL, ODCs, and corresponding monotherapies as described above. To determine the disposition in blood in the first 24h, blood samples (5 µL/mouse) were collected from the tail vein (n = 4 mice) at 2h, 4h, 8h, and 24h time points and transferred onto paper (a filter paper 903 protein saver card from Whatman (MA, USA)). A disk with the entire spot was punched from the paper card and transferred to the HPLC vial tube. Hundred µL of MeOH containing a mix of internal standards was added, and the tube was vortex‐mixed for about 1 min before injecting 10 µL into the LC‐MS/MS system. The LC‐MS/MS system consisted of an API 4,000 triple quadrupole mass spectrometer (AB sciex, Concord, ON, Canada) controlled by analyst 1.6.1 software. The mass spectrometer was operated in the multiple reaction monitoring (MRM) mode with positive electrospray ionization. The instrument was coupled with an Agilent series 1100 (Waldbronn, Germany) LC system. Chromatography was performed on a Phenomenex Kinetex C18 analytical column (50 mm x 2.1 mm, 2.6 um; Torrance, CA, USA). The flow rate was 0.5 mL/min using gradient elution conditions. The method was fully validated before application to this pharmacokinetic study.

DLD1 tumors = assay: Subcutaneous xenograft tumor growth; assay type: in vivo, Swiss nu/nu mice
Procedure: All procedures including animal use were performed in accordance with the Institutional Ethical Committee of Animal Care in Geneva and the Swiss Cantonal Veterinary Office (Authorization number GE‐136‐19). Briefly, female and male Swiss nu/nu mice aged 6–8 weeks were obtained from Charles River (Écully, France). For subcutaneous xenografts mice were inoculated in the left flank with 5x10^6 DLD1 or SW620 cells suspended in 100 µL of cell culture medium, supplemented with 1% FBS.
Drugs were administered through oral gavage based on average body weight of the males (100 µL/mouse) and females (80 µL/mouse) at various concentrations, see Tables S10 and S11.
Solution A: step (1) 30% PEG 400 + 5% propylene glycol + 0.5% Tween 80 and (2) 64.5% sterile H2O. Solution B: step (1) 10% DMSO, (2) 30% PEG 300 + 5% Tween 80 and (3) 55% sterile H2O. […] FOLFOX was administered as 6 mg/kg oxaliplatin two hours before administration of 90 mg/kg leucovorin and 50 mg/kg (DLD1) or 25 mg/kg (SW620) 5‐fluorouracil at day 1 and a repeat of 5‐fluorouracil dosing on day 2.
The Bliss independence model can be used to evaluate the drug interaction potential of a drug mixture. […] The model is based on the probability theory and requires the drug activity of each drug at the selected dose to predict the inhibition rate (IR) at additive doses.

[2] = Clinical plasma pharmacokinetics in patients, plasma concentration limit calculation; assay type: in vivo; conditions: average plasma concentration calculated from AUC0-24h in patients
Procedure: To select for clinically relevant doses, the clinically attainable drug concentration measured in the blood plasma of patients after treatment is used to calculate the concentration limit for in vitro experiments. […] The average drug concentration is calculated from the AUC0–24h and is implemented as the plasma concentration limit (PCL) which drug dose selection must remain below for in vitro experiments. If a drug is FDA approved, the AUC0–24h selected is the one corresponding to the recommended dose in clinical practice. If a drug is in clinical trials, the AUC0–24h selected is the one corresponding to the maximum tolerated dose in early stage clinical trials. Note, experiments were conducted with the most current PCL calculated from the AUC0–24h information available at the start of experiments (December 2017), see Table S4.

[3] = 0-24h; ref EPAR WC00033991; cited from earlier work
[4] = Serum and intratumor drug concentration at experimental endpoint, DLD1 model; assay type: in vivo, mice; conditions: for concentration at 1 h / Kp at 1 h: Swiss Nu/nu, mouse, oral; for concentration at 1 h: 1h post-treatment at endpoint (day 15); for Kp at 1 h: tumor vs serum, read-out: ratio tumor vs serum; for Kp at 1 h / ratio ODC vs single drug: DLD1 model
Procedure: At the experimental endpoint, plasma and tumors were collected 1h post‐treatment and part of the tumor tissue was used to determine the intratumor drug concentrations. Plasma and tumor samples were analyzed using the same LC‐MS/MS method used for drug determination in DBS. Before analysis, tumor tissues were homogenized in a 1 mL mixture of water/acetonitrile (30/70). Hundred uL of homogenates were transferred into new tubes and 50 µL of acetonitrile, as well as 50 µL of a mix of internal standards in MeOH were added. Tubes were vortexed and centrifuged for 10 min at 9,000 rpm. The supernatant (100 µL) was evaporated under nitrogen and reconstituted in 100 µL of acetonitrile with 0.1% formic acid/water with 0.1% formic acid (30/70). 10 µL was then injected into the LC‐MS/MS system. Plasma samples were spotted onto the same paper used for whole blood analysis and were extracted and analyzed using the same methods as used for DBS.

[5] = given as part of DLD1-specific ODC
[6] = erlotinib 5 mg/kg, Exp 1, Day 11
[7] = erlotinib 12.5 mg/kg, Exp 1, Day 11
[8] = erlotinib 12.5 mg/kg, Exp 5, Day 16
[9] = erlotinib 12.5 mg/kg, Exp 7, Day 15

## C#Cc1cccc(Nc2ncnc3cc(OCCOC)c(OCCOC)cc23)c1 [erlotinib]
[1]; [5]
  Tmax: 2 h
  AUC(0-t): 22300 ± 5140 ng·h/mL
  Cmax: 3370 ± 2160 ng/mL
[1]; mono
  Tmax: 2 h
  AUC(0-t): 19600 ± 7660 ng·h/mL
  Cmax: 2610 ± 860 ng/mL
[1]; mice with DLD1 tumors, AUC0-24h
  increase of AUC as part of the ODC vs single-drug treatment: 1.14 x
DLD1 tumors; [6]
  % CTRL (tumor volume): 104 72 27 % CTRL
  Volume: 482 336 127 mm^3
DLD1 tumors; [7]
  % CTRL (tumor volume): 87 35 13 % CTRL
  Volume: 405 161 61 mm^3
DLD1 tumors; [8]
  % CTRL (tumor volume): 66 28 12 % CTRL
  Volume: 420 178 80 mm^3
DLD1 tumors; [9]
  % CTRL (tumor volume): 98 44 22 % CTRL
  Volume: 420 211 86 mm^3
[2]
  PCL (plasma concentration limit): 1.61 µM and 1.6 µM
[3]
  AUC: 15.2 mg*h/L EPAR WC00033991
[4]; serum, as part of ODC, regorafenib 15, erlotinib 12.5, selumetinib 5, vemurafenib 75 mg/kg, read-out: concentration serum
  concentration at 1 h: 3040 ± 910 ng/mL
[4]; serum, single drug, regorafenib 15, erlotinib 12.5, selumetinib 5, vemurafenib 75 mg/kg, read-out: concentration serum
  concentration at 1 h: 2330 ± 180 ng/mL
[4]; tumor (DLD1), as part of ODC, DLD1 tumor, doses as E156, read-out: concentration tumor
  concentration at 1 h: 7600 ± 3200 ng/g
[4]; tumor (DLD1), single drug, DLD1 tumor, doses as E156, read-out: concentration tumor
  concentration at 1 h: 3620 ± 140 ng/g
[4]; as part of ODC
  Kp at 1 h: 2.5
[4]; single drug
  Kp at 1 h: 1.55
[4]; serum
  ratio ODC vs single drug: 1.31
[4]; tumor
  ratio ODC vs single drug: 2.10
